# Laboratory results reported in patent publication US12421225B2, “Heteroaromatic amide derivative and medicament containing the same” (KAKEN PHARMACEUTICAL CO., LTD., priority 2018, dated 2025).
# pIC50: −log10 of the molar value.
# Molecular target: human Nav1.7 (Homo sapiens (Human), UniProt Q15858)
# Assay: Human Nav1.7 inhibitory activity evaluation (automated patch clamp QPatch16X, HEK293A cells stably expressing human Nav1.7 and human Navβ1)
# Format: cell-based
# Details: HEK293A cells stably expressing human Nav1.7 and human Navβ1, automated patch clamp QPatch16X
# Outline: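 IC50 calculated from the concentration-response of inward current evoked by the second −10 mV, 50 ms depolarisation, which follows a 15 s conditioning step at roughly 30-40% inactivation and a 100 ms −120 mV interval. Cells: HEK293A expressing human Nav1.7/Navβ1, automated patch clamp, room temperature, 0.1% DMSO final.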
# Sequence of human Nav1.7 (Q15858 whole entry): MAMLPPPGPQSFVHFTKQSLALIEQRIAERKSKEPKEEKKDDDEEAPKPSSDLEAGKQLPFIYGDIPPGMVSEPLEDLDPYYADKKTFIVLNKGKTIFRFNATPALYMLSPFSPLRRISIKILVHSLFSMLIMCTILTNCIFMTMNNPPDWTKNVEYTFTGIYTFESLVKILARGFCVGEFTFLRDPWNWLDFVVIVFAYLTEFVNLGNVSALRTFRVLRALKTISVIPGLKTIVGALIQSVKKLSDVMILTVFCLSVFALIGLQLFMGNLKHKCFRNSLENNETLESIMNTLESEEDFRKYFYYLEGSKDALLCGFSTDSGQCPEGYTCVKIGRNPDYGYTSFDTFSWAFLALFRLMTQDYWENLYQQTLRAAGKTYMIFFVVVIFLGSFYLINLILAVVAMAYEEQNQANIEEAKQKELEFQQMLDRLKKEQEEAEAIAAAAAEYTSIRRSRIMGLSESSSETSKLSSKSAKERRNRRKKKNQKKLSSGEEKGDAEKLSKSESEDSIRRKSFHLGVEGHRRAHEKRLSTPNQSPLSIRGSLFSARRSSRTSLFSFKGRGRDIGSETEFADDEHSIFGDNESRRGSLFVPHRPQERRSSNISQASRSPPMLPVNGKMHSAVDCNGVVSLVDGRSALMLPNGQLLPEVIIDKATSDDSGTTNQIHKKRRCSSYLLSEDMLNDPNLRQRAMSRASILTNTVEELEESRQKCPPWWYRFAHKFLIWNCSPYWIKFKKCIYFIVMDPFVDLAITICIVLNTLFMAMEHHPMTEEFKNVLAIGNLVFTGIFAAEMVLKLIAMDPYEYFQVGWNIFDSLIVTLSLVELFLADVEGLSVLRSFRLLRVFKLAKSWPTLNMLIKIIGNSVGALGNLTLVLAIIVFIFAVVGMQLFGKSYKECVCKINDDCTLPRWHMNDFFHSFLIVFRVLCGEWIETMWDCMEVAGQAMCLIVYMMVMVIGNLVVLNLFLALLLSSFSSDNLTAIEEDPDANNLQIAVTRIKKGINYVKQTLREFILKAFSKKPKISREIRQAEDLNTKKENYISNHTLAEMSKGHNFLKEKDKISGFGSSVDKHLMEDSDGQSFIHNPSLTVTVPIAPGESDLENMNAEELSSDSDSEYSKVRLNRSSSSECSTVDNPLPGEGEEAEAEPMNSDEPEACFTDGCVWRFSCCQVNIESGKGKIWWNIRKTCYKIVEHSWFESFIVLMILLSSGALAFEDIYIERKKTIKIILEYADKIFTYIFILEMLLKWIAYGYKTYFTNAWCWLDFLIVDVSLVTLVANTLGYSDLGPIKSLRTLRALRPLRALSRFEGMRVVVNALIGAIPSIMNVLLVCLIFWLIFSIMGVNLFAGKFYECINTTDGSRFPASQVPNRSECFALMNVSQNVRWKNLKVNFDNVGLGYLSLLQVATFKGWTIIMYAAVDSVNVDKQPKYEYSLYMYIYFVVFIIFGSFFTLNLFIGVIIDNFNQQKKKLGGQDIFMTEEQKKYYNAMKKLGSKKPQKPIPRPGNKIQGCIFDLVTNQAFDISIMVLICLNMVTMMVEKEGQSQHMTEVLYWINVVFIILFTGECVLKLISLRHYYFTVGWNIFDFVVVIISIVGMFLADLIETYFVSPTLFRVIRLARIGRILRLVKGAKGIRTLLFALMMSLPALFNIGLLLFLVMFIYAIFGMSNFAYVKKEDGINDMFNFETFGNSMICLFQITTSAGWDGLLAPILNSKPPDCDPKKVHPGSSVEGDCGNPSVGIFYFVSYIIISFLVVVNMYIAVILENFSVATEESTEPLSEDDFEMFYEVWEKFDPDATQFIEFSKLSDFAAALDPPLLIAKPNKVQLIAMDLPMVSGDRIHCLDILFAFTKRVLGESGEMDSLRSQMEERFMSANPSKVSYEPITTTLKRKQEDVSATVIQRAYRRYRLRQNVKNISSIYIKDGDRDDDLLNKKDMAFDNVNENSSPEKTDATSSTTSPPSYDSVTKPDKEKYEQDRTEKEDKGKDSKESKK
# Sequence of human Nav1.7 (Q07699 19-218 partner): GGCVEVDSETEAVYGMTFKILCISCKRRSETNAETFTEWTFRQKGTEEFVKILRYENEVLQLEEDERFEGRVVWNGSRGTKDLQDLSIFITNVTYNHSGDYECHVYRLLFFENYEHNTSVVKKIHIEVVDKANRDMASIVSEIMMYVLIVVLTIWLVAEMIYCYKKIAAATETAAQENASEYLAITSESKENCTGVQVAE
row,pIC50,SMILES
1,> 6.00,O=C(N[C@H]1COc2ccccc2C1)c1cn2c(n1)CCC(C1CCCC1)C2 (some centres unmarked) [Example 24]
2,> 5.00,CN1Cc2nc(C(=O)N[C@H]3COc4ccccc4C3)cn2CC1c1ccc(F)c(F)c1 (some centres unmarked) [Example 45]
3,> 6.00,N#Cc1ccc2c(c1)C[C@@H](NC(=O)c1cc3n(n1)CCC(COCc1ccccc1)O3)CO2 (some centres unmarked) [Example 99]

# Same assay, conditions: human Nav1.7, automated patch clamp
row,SMILES,pIC50
1,O=C(N[C@H]1COc2ccc(COCC(F)(F)F)cc2C1)c1cc2n(n1)CCC(CN1CC(F)(F)C1)O2 (some centres unmarked) [Example 440],> 5.00
2,O=C(N[C@H]1COc2ccc(C(F)(F)F)cc2C1)c1nn2c(c1-c1ccc3cccnc3c1)COCC2 [Example 517],> 5.00
3,O=C(N[C@H]1COc2ccc(C(F)(F)F)cc2C1O)c1cc2n(n1)CC(CCCOCC(F)F)O2 (some centres unmarked) [Example 609],> 5.00
4,"O=C(N[C@H]1COc2ccc(COCC(F)(F)F)cc2C1)c1cc2n(n1)CCC(C(F)F)O2 (single isomer, unassigned) [163 (isomer B)]",> 5.00
5,O=C(N[C@H]1COc2ccc(C(F)(F)F)cc2C1)c1cc2n(n1)CCC(OCCOCC(F)(F)F)CO2 (some centres unmarked) [Example 680],> 5.00
6,O=C(N[C@H]1COc2ccc(C(F)(F)F)cc2C1)c1cc2n(n1)CCC(C1CCOC1)O2 (some centres unmarked) [Example 612],> 5.00
7,"Cc1ccc2c(c1)C[C@@H](NC(=O)c1cc3n(n1)CC(CCNCC(F)(F)F)O3)CO2 (single isomer, unassigned) [228 (isomer B)]",> 5.00
8,"N#CC1(COCC2CCn3nc(C(=O)N[C@H]4COc5ccc(C(F)(F)F)cc5C4)cc3O2)CC1 (single isomer, unassigned) [554 (isomer B)]",> 5.00
9,O=C(N[C@H]1COc2cc(C(F)(F)F)nn2C1)c1cc2n(n1)CCC(c1ccccc1F)O2 (some centres unmarked) [Example 537],> 5.00
10,"O=C(N[C@H]1COc2ccc(CC(F)F)cc2C1)c1cc2n(n1)CCC(C(F)(F)F)O2 (single isomer, unassigned) [173 (isomer B)]",> 5.00

# Continued, values first:
row,pIC50,SMILES
1,> 5.00,CCC1CCn2nc(C(=O)N[C@H]3COc4ccc(C(F)(F)F)nc4C3)cc2O1 (some centres unmarked) [Example 549]
2,> 6.00,O=C(N[C@H]1COc2ccc(CC(F)F)cc2C1)c1cc2n(n1)CCC(COCC(F)(F)F)CO2 (some centres unmarked) [Example 557]
3,> 6.00,CC(C)(F)C1CCn2nc(C(=O)N[C@H]3COc4ccc(Cl)cc4C3)cc2O1 (some centres unmarked) [Example 166]
4,> 6.00,O=C(N[C@H]1COc2ccc(C(F)(F)F)cc2C1F)c1cc2n(n1)CCN(CC1CCOC1)C2 (some centres unmarked) [Example 673]
5,> 6.00,O=C(N[C@H]1COc2ccc(C(F)(F)F)cc2C1F)c1cc2n(n1)CCC(COCC(F)(F)F)CO2 (some centres unmarked) [Example 634]
6,> 6.00,COc1ncccc1C1CCn2nc(C(=O)N[C@H]3COc4ccc(Cl)cc4C3)cc2O1 (some centres unmarked) [Example 367]
7,> 6.00,O=C(N[C@H]1COc2ccc(CCOC(F)F)cc2C1)c1cc2n(n1)CC(CCN1CC(F)(F)C1)O2 (some centres unmarked) [Example 237]
8,> 6.00,O=C(N[C@H]1COc2cccc(Cl)c2C1)c1cc2n(n1)CCC(COCC(F)(F)F)O2 (some centres unmarked) [Example 574]
9,> 6.00,O=C(N[C@H]1COc2ccc(C3CC3)cc2C1)c1nc2n(c1-c1ccccn1)CCOC2 [Example 342]
10,> 6.00,O=C(N[C@H]1COc2ccccc2C1)c1nc2n(c1-c1ccccc1)CC(C(F)(F)F)CC2 (some centres unmarked) [Example 299]
11,> 6.00,O=C(N[C@H]1COc2ccc(C3CC3)cc2C1)c1cc2n(n1)CC(COCC1CC1)O2 (some centres unmarked) [Example 463]
12,> 6.00,O=C(N[C@H]1COc2ccc(C(F)(F)F)cc2C1F)c1cc2n(n1)CCN(CC1CCCOC1)C2 (some centres unmarked) [Example 672]
13,> 6.00,"O=C(N[C@H]1COc2ccc(CC(F)F)cc2C1)c1cc2n(n1)CCC(CCOC(F)F)O2 (single isomer, unassigned) [148 (isomer A)]"
14,> 6.00,O=C(NC1COc2ccc(F)c(F)c2C1)c1cc2n(n1)CC(CCCOCC(F)(F)F)O2 (centres unmarked) [Example 628]
15,> 6.00,O=C(N[C@H]1COc2ccc(COCC(F)(F)F)cc2C1)c1cc2n(n1)CC(CCOC1CCC1)O2 (some centres unmarked) [Example 472]
16,> 6.00,O=C(N[C@H]1COc2ccc(Cl)cc2C1)c1cc2n(n1)CC(COCC1CC1)O2 (some centres unmarked) [Example 469]
